# Experimental data as given in patent US11965006B2, “Antimicrobial and anti-cancer therapy” (UNIVERSITY OF PITTSBURGH—OF THE COMMONWEALTH SYSTEM OF …, priority 2016, dated 2024).
# “Also recorded” adds a separate entry of the source. Read-outs that look alike come from different tables or passages of the source. Ends that are not written are not given here.
# What was measured:
# [1] = In vivo toxicity / maximum tolerated dose; set-up: species or system Mice (strain: Swiss Webster); conditions: for maximum tolerated dose (MTD): i.v., Swiss Webster mice
# Description: The modified AMPs show a lower toxicity and higher maximum tolerated dosage (MTD) than WLBU2 (SEQ ID No. 26). The MTD for WLBU2 (SEQ ID No. 26) is 15 mg/kg, for Colistin is 10 mg/kg, and SEQ ID No. 15 is 30 mg/kg (FIG. 14A).
# Mice (strain: Swiss Webster) were injected with SEQ ID No. 15 peptides intravenously (i.v.) or intraperitoneally (i.p.) at the concentrations indicated. […] Thus, the estimated maximum tolerated dose (MTD) is around 40-50 mpk (i.v.). On a similar setting of testing other AMPS, the MTD for WLBU2 is 15 mpk (i.v.) and 10 mpk (i.v.) for colistin.
# [2] = tested on: Klebsiella pneumonia MDR clinical isolates; type: cell-based
# Description: (§1) The bactericidal activities were examined using standard bacterial culture media (MHB) without the inclusion of human blood.
# (§2) Tables 3 and 4 provide the MIC data for the tested AMPs against a variety of infectious species. The following strains were tested: Enterococcus faecium MDR clinical isolates Ef 25153 and Ef 26125; methicillin-resistant Staphylococcus aureus (MRSA) clinical isolates USA300 and 150-10; Klebsiella pneumonia MDR clinical isolates C3, C5, A5, D7 and E6; and Pseudomonas aeruginosa MDR clinical isolates PA 82-8 and PA 129-5. […] Table 5 provides the data for the D-amino acid substituted AMPs and their bactericidal activities against various Klebsiella pneumonia multi-drug resistant (MDR) clinical isolates. All odd number Kp bacteria (isolated prior to colistin treatment; colistin sensitive) are paired with the corresponding even number Kp bacteria (isolated after colistin treatment; colistin resistant) from the same patient. O.D. readings represent the bacterial growth with a background reading of about 0.049+/−0.003.
# [3] = tested on: methicillin-resistant Staphylococcus aureus (MRSA) clinical isolates; type: cell-based
# Description: as §1, §2
# [4] = tested on: Pseudomonas aeruginosa MDR clinical isolates; type: cell-based
# Description: as §1, §2
# [5] = tested on: Enterococcus faecium MDR clinical isolates; type: cell-based
# Description: as §1, §2
# [6] = tested on: P. aeruginosa lipopolysaccharide (LPS)-induced secretion of tumor necrosis factor (TNF) in Raw (264.7) Cells; test: Neutralization of LPS-induced TNF secretion; type: cell-based; conditions: 1 μg/ml LPS
# Description: Anti-inflammatory activity is based on the determination of cytokine stimulation of major inflammatory (e.g. TNF) or anti-inflammatory (e.g., IL-10) cytokines. For in vitro studies, TNF is measured using culture medium from LPS-stimulated macrophage cultures in the presence or absence of peptide treatment. For in vivo studies, cytokine levels in bronchoalveolar lavage (BAL) fluid were quantified using the mouse cytokine multiplex panel assay (Milliplex; Millipore, Billerica, Mass.). The expressions of cytokines were analyzed using the Luminex assay system, based on manufacturer's instructions and our previous publication. Standard recombinant protein solution was used to generate a standard curve for each analyzed protein. Absolute cytokine concentrations were calculated from the standard curve for each cytokine.
# A high dosage (1 μg/ml) of LPS was used to stimulate the TNF secretion in raw cells.
# Pseudomonas aeruginosa = type: cell-based; conditions: for MIC: 18 h
# Description: as §1
# FIG. 5 illustrates the bactericidal activity of the 30 amino acid AMP series against Pseudomonas aeruginosa (by kinetic assay) over time (hours). […] OD reading, at 570 nm, represents bacterial growth; background reading (˜0.05) was subtracted from sample readings. Bolded concentration indicates the determined MIC. For example, MIC for SEQ ID No. 4 was 4 μM, MIC for SEQ ID No. 8 was 2 μM, MIC for SEQ ID No. 7 was 2 μM, MIC for SEQ ID No. 5 was 2 μM, MIC for SEQ ID No. 6 was 2 μM, and MIC for SEQ ID No. 9 was 2 μM.
# FIG. 6 illustrates the bactericidal activity of the 24 amino acid AMPs series against Pseudomonas aeruginosa (by kinetic assay) over time (hours). […] OD reading, at 570 nm, represents bacterial growth; background reading (˜0.05) was subtracted from sample readings. Bolded concentration indicates the determined MIC.
# P. aeruginosa = test: In vivo respiratory P. aeruginosa infection; conditions: high dosage bacterial inoculation, FIG. 16
# [7] = methicillin-resistant clinical isolates, 18 h
Substance,neutralizing LPS-induced TNF secretion [6],MIC A5 ([2]; 18 h),MIC C3 ([2]; 18 h),MIC C5 ([2]; 18 h),"MIC MRSA 150-10 [3, 7]","MIC MRSA USA300 [3, 7]","MIC PA82 82-8 ([4]; MDR clinical isolates, 18 h)","MIC PA 129-5 ([4]; MDR clinical isolates, 18 h)","MIC Ef 25153 ([5]; MDR clinical isolates, 18 h)","MIC Ef 26125 ([5]; MDR clinical isolates, 18 h)",MIC D7 ([2]; 18 h),MIC E6 ([2]; 18 h),MIC (Pseudomonas aeruginosa),other results
Colistin [reference compound],Do Not Neutralize,–,–,–,–,–,–,–,–,–,–,–,–,"maximum tolerated dosage (MTD) ([1]; FIG. 14A): 10 mg/kg; maximum tolerated dose (MTD) [1]: 10 mpk; MIC A5 ([2]; isolate A5, Table 3): >32 µM; MIC C3 ([2]; isolate C3, Table 3): >32 µM; MIC C5 ([2]; isolate C5, Table 3): >32 µM; MIC D7 ([2]; isolate D7, Table 3): <16 µM; MIC E6 ([2]; isolate E6, Table 3): <16 µM; MIC MRSA 150-10 ([3]; isolate 150-10, Table 3): <16 µM; MIC MRSA USA300 ([3]; isolate USA300, Table 3): <16 µM; MIC PA 82-8 ([4]; isolate PA 82-8, Table 3): <16 µM; MIC PA 129-5 ([4]; isolate PA 129-5, Table 3): <16 µM; MIC Ef 25153 ([5]; isolate Ef 25153, Table 3): <16 µM; MIC Ef 26125 ([5]; isolate Ef 26125, Table 3): <16 µM"
ILKKWWGTSGGLLGGLLGKVTSVIKGLNNI [SEQ ID No. 3],good activity; also recorded: display Neutralizing Activities,32 µM,>32 µM,>32 µM,<32 µM,<32 µM,>32 µM,>32 µM,16 µM,16 µM,–,–,–,"bactericidal activity (Pseudomonas aeruginosa; kinetic assay, FIG. 5): did not have strong bactericidal activity"
ILKKWWKTSGGLLGGLLGKVTSVIKGLNNI [SEQ ID No. 4],good activity; also recorded: display Neutralizing Activities,>4 µM,>4 µM,4 µM,>4 µM,>4 µM,>4 µM,4 µM,>4 µM,<2 µM,<2 µM,>4 µM,4 µM,–
ILKKWWKTSKGLLGGLLGGVTSVIKKLKKI [SEQ ID No. 7],–,–,<2 µM,4 µM,<2 µM,<2 µM,2 µM,<2 µM,>4 µM,<2 µM,<2 µM,<2 µM,2 µM,–
ILKKWWKTSKGLLGGLLGGVTSVIKKLKKI [SEQ ID No. 8],–,>4 µM,<2 µM,4 µM,4 µM,<2 µM,>4 µM,<2 µM,>4 µM,<2 µM,<2 µM,<2 µM,2 µM,–
ILKKWWKTSKGLLGGLLGKVTSVIKGLKNI [SEQ ID No. 6],display Neutralizing Activities,>4 µM,4 µM,4 µM,<2 µM,>4 µM,>4 µM,>4 µM,>4 µM,<1 µM,4 µM,4 µM,2 µM,–
ILKKWWKTSKGLLGGLLGKVTSVIKGLNNI [SEQ ID No. 5],good activity; also recorded: display Neutralizing Activities,>4 µM,4 µM,2 µM,>4 µM,>4 µM,>4 µM,<1 µM,>4 µM,<2 µM,<1 µM,4 µM,2 µM,–
ILKKWWKTVKGLLGGLLGGVTSVIKKLKKI [SEQ ID No. 9],–,>4 µM,<2 µM,4 µM,<2 µM,<2 µM,>4 µM,>4 µM,<2 µM,<2 µM,<2 µM,<2 µM,2 µM,–
"LKKWWKKVKGLLGGLLGK [SEQ ID No. 19, LKKWWKKVKGLLGGLLGK]",good activity; also recorded: Display Neutralizing Activities,<2 µM,<2 µM,–,<1 µM,<2 µM,8 µM,<1 µM,<2 µM,<2 µM,<2 µM,<2 µM,–,antimicrobial activity against respiratory P. aeruginosa infection (P. aeruginosa): excellent antimicrobial activity
LKKWWKKVKGLLGGLLGKVTSVIK [SEQ ID No. 15],–,>4 µM,<2 µM,4 µM,2 µM,4 µM,2 µM,1 µM,2 µM,<1 µM,2 µM,2 µM,–,"tolerability ([1]; 60 mg/kg i.v.): One mouse injected with 60 mg/kg (mpk, i.v.) died; tolerability ([1]; 30 mpk i.p.): all mice were active and tolerated the dosage; tolerability ([1]; 40 mpk i.v.): all mice were active and tolerated the dosage; MTD ([1]; Swiss Webster, mouse, in vivo, FIG. 14A, read-out: maximum tolerated dosage (MTD)): 30 mg/kg; in vivo toxicity ([1]; figure legends FIG. 14A, FIG. 30): lower toxicity (higher MTD) than WLBU2; also recorded: very low in vivo toxicity; maximum tolerated dose (MTD) [1]: 40-50 mpk"
LKKWWKTVKGLLGGLLGKVTSVIK [SEQ ID No. 14],good activity; also recorded: Display Neutralizing Activities,>4 µM,<2 µM,4 µM,<2 µM,<2 µM,<2 µM,<2 µM,<2 µM,<2 µM,<2 µM,<2 µM,–,antimicrobial activity against respiratory P. aeruginosa infection (P. aeruginosa): excellent antimicrobial activity
